Entries after “also recorded” stand apart in the source; their conditions may differ.
Assays:
Jurkat cells [1] = assay: lactate excretion by Jurkat cells (enzymatic L-lactic acid kit); format: cell-based, human
Method: The cells were incubated in 1 mL volume (24 well plates) at 5% CO2 and 37°C. The inhibitors were added in 100 µM concentration. As a control, equivalent amount of DMSO as used for the addition of inhibitors was supplemented to the medium. The tests started with 1×10^5 cells per mL. Extracellular lactate excreted by the Jurkat cells was measured in the supernatant of the growth medium after the cells were removed by centrifugation at 1500 rpm for 5 minutes. Lactate concentration was determined enzymatically using L-Lactatic acid kit (K-LATE, Megazyme, Ireland).
Measurements of lactate excretion in the tumorigenic Jurkat cells and the cells treated with two selected inhibitors at different concentrations were repeated by more detailed measurements. The growth conditions were identical to those described in Experiment 2. No significant difference in lactate excretion could be observed by the treated and untreated cells during the initial stage of growth that lasted for approximately 12 hours. Later on lactate excretion by the Jurkat cells ceased in the presence of both inhibitors.

Jurkat cells [2] = assay: NADH levels in Jurkat cells (NADH/NAD fluorometric assay kit); format: cell-based, human; settings: 24 hours after addition, different concentrations
Method: By inhibiting modified PFK-M enzyme in the cancer cells, glycolytic flux should be decreased and concomitantly NADH levels reduced. To verify that, the amounts of reduced pyridine nucleotide was measured by NADH/NAD fluorometric assay kit (Abcam). The Jurkat cells were seeded into the wells of 96 wells plate at 5×10^5 cells per mL. The untreated cells (control) and the cells with specified amounts of added Inhibitors No. 3 and No. 9 were incubated for 24 hours.

[3] = tested on: human embryonic kidney (HEK 293) cells; assay: lactate excretion by non-tumorigenic HEK 293 cells; format: cell-based
Method: The effect of Inhibitor No. 3 on lactate excretion was tested also on two non-tumorigenic cell lines. First, fast proliferating human embryonic kidney (HEK 293) cells were assessed for lactate formation in the presence of Inhibitor No. 3. RPMI 1640 GlutaMAX medium (Thermo Fisher) supplemented with 10% FBS was used as a growth medium. […] About 95 mg/L of lactate were detected after 72 hours of incubation by untreated cells (control) and by the cells growing in the presence of Inhibitor No. 3 (Figure 9a). Similar results were recorded also by non-tumorigenic MCF-10A cell line isolated form the epithelial cells of the mammary gland. The cells were cultivated in MEBM medium supplemented by additives that were obtained as a MEGM Kit from Lonza/Clonetics Corporation. Characteristically these cells grew slower than HEK 293 cells with correspondingly slower lactate excretion rate. After 96 hours of incubation, only about 27 mg/L of lactate was detected in the medium. Again, no influence of different concentrations of Inhibitor No. 3 on lactate generation could be observed (Figure 9b).

COLO 829 cells = assay: lactate excretion by COLO 829 cells; format: cell-based; settings: inhibitor added 8 hours after inoculation, then at 24-hour intervals; low concentrations (from 10 µM)
Caco-2 cells = assay: cytotoxicity in Caco-2 cells (lactate dehydrogenase (LDH) kit); format: cell-based
Method: (§1) Lactate generation, growth yield and survival under normal and inhibitory conditions of three different tumorigenic cells lines were determined in more detailed measurements. […] Cytotoxicity was measured by the Lactate dehydrogenase (LDH) kit (Roche).

MDA-MB-231 cells = assay: cytotoxicity in MDA-MB-231 cells (LDH kit); format: cell-based
Method: as §1
Inhibitors No. 23, 29, 30 and 31 were tested for preventing lactate generation by the MDA-MB-231 cells.

[4] = biological target: T1, modified (47 kDa) 6-phosphofructo-1-kinase (PFK-M), sfPFK-M fragments (Homo sapiens, UniProt P08237); assay: in vitro inhibition of purified recombinant modified (cancer-specific) PFK-M fragments
T1 sequence (P08237 1-443 limits assumed): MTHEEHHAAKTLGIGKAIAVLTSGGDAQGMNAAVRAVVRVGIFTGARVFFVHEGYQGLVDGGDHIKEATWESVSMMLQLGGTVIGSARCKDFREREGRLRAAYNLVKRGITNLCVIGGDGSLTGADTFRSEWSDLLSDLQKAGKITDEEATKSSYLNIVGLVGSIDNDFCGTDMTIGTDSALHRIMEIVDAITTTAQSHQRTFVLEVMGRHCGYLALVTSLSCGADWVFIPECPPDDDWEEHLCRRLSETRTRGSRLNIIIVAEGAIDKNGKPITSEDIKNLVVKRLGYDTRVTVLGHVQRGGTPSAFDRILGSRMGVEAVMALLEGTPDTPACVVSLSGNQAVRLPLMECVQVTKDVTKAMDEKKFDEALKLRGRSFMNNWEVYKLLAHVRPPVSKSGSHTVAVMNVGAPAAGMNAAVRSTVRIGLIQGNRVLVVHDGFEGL
Method: Initially, all compounds were tested in vitro for inhibition of the purified human native enzyme (85 kDa) and modified cancer-specific shorter fragments (47 kDa) of muscle type PFK-M, followed by measurements of the purified native enzyme (85 kDa) and shorter fragments (70 kDa) of liver type PFK-L isoform.
Selected compounds were tested for in vitro inhibition of isolated recombinant human native and modified PFK-M enzymes.
The yeast transformant encoding the native human PFK-M enzyme was designated as nPFKM strain while transformant encoding cancer specific shorter fragments was designated as sfPFKM strain. […] For the enzymatic measurements, all the substrates (F6P and ATP), auxiliary enzymes, NADH and inhibitors dissolved in DMSO were added first to the buffer with PEG. After thorough mixing of the buffer with all ingredients, the enzymatic reaction started by the insertion of the purified recombinant enzymes.

[5] = sequential addition at 24-hour intervals, 92 hours, average over medium without and with inhibitor
[6] = single addition, average over control and different concentrations of inhibitor

## O=C(CSc1nnc(-c2ccc3c(c2)OCO3)o1)Nc1ccon1 [Inhibitor No. 3, 2-[(5-benzo[1,3]dioxol-5-yl-1,3,4-oxadiazol-2-yl)sulfanyl]-N-isoxazol-3-yl-acetamide]
Jurkat cells [1]; inhibitor concentrations lower than 200 µM
  time at which lactate production was averted: about 24 hours
Jurkat cells [1]; preliminary test, 100 µM inhibitor, followed for 48 hours, versus DMSO control
  lactate excretion by the Jurkat cells: Significantly lowered lactate excretions; also recorded: effectively prevented excretion
Jurkat cells [2]
  NADH levels: steadily decreased in dose dependent manner
[3]; 72 hours of growth, different concentrations of inhibitor
  reduction of lactate generation, HEK 293: no significant reduction of lactate generation
[3]; after 72 hours of incubation, same for untreated control
  lactate detected, HEK 293: About 95 mg/L
COLO 829 cells
  lactate formation in COLO 829 cells, sequential re-insertion: strong reduction of lactate formation
Caco-2 cells; [5]
  average percentages of dead cells, Caco-2, sequential re-insertion: 5,38±0,4%
Caco-2 cells; [6]
  average percent of dead cells, Caco-2: 3,99±0,08%
MDA-MB-231 cells; [5]
  average percentages of dead cells, MDA-MB-231, sequential re-insertion: 2,05±0,18%
MDA-MB-231 cells; [6]
  average percent of dead MDA-MB-231 cells: 7,2±0,47%
[4]
  IC50: ~15 µM

Reference: patent publication EP3833345B1, “SMALL MOLECULE-INHIBITORS OF 6-PHOSPHOFRUCTO-1-KINASE FOR REDUCING LACTATE GENERATION BY CANCER CELLS” (Kemijski Institut, priority 2018, dated 2020)
